# Read-outs that look alike come from different tables or passages of the source.
# What was measured:
# [1] = tested on: Na^+-dependent D-glucose uptake; assay: Na+-dependent D-glucose uptake into intestinal brush border membrane vesicles; assay type: biochemical, ovine
# [2] = tested on: HSV-1 (SC16)
# [3] = biological target: T1, α-L-fucosidase (Bos taurus, UniProt Q2KIM0); assay: Glycosidase inhibition: α-L-fucosidase; assay type: biochemical, Bovine; conditions: 1 mg/ml; read-out: % inhibition, fucosidase
# T1 construct: purchased Sigma
# T1 sequence (Q2KIM0 23-468): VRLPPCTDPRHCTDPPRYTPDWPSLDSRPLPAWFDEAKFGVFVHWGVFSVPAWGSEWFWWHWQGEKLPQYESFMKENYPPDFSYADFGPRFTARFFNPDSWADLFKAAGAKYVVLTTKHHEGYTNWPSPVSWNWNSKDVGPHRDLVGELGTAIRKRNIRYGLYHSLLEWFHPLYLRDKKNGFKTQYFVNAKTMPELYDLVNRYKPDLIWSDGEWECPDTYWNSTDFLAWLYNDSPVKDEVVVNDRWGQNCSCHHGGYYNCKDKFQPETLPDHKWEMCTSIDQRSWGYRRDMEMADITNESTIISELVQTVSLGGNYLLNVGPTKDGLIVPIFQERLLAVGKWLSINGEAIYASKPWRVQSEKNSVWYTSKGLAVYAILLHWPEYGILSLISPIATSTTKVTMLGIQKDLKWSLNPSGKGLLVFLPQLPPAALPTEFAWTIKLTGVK
# Summary of the method: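 Screening used 3.57 mM (final) p-nitrophenyl substrates in McIlvaine buffer at each enzyme's pH optimum, 20° C, with endpoint reading at 405 nm.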
# [4] = Group 1: 15 mg/kg i.p. daily, day 0
# [5] = Group 1: 15 mg/kg i.p. daily, day 1
# [6] = Group 1: 15 mg/kg i.p. daily, day 2
# [7] = Group 1: 15 mg/kg i.p. daily, day 3
# [8] = Group 1: 15 mg/kg i.p. daily, day 4
# [9] = Group 1: 15 mg/kg i.p. daily, day 5
# [10] = Group 1: 15 mg/kg i.p. daily, day 6
# [11] = Group 1: 15 mg/kg i.p. daily, day 7
# [12] = Group 1: 15 mg/kg i.p. daily, day 8
# [13] = Group 1: 15 mg/kg i.p. daily, day −2
# [14] = Group 2: 150 mg/kg i.p. daily, day 0
# [15] = Group 2: 150 mg/kg i.p. daily, day 1
# [16] = Group 2: 150 mg/kg i.p. daily, day 2
# [17] = Group 2: 150 mg/kg i.p. daily, day 3
# [18] = Group 2: 150 mg/kg i.p. daily, day 4
# [19] = Group 2: 150 mg/kg i.p. daily, day 5
# [20] = Group 2: 150 mg/kg i.p. daily, day 6
# [21] = Group 2: 150 mg/kg i.p. daily, day 7
# [22] = Group 2: 150 mg/kg i.p. daily, day 8
# [23] = Group 2: 150 mg/kg i.p. daily, day −2
structure (smiles),measurement,setting,value
OC[C@@H]1[C@@H](O)[C@H](O)[C@H]2[C@H](O)[C@@H](O)CN21 [casuarine (8)],Glucose uptake,"[1]; initial rate, competition with labelled D-glucose, control 240",265 pmol/s/mg
same,"glucose transport, effect",[1]; versus control,slightly stimulated
same,Group mean weight,[2]; [4],16.7 g
same,Weight (% change),[2]; [4],3.1%
same,Group mean weight,[2]; [5],17.1 g
same,Weight (% change),[2]; [5],5.6%
same,Group mean weight,[2]; [6],17.1 g
same,Weight (% change),[2]; [6],5.6%
same,Group mean weight,[2]; [7],17.6 g
same,Weight (% change),[2]; [7],8.6%
same,Group mean weight,[2]; [8],17.4 g
same,Weight (% change),[2]; [8],7.4%
same,Group mean weight,[2]; [9],17.6 g
same,Weight (% change),[2]; [9],8.6%
same,Group mean weight,[2]; [10],17.7 g
same,Weight (% change),[2]; [10],9.2%
same,Group mean weight,[2]; [11],17.4 g
same,Weight (% change),[2]; [11],7.4%
same,Group mean weight,[2]; [12],17.7 g
same,Weight (% change),[2]; [12],9.3%
same,Group mean weight,[2]; [13],16.2 g
same,Weight (% change),[2]; [13],0%
same,Group mean weight,[2]; [14],16 g
same,Weight (% change),[2]; [14],3.2%
same,Group mean weight,[2]; [15],16.4 g
same,Weight (% change),[2]; [15],5.8%
same,Group mean weight,[2]; [16],16.3 g
same,Weight (% change),[2]; [16],5.2%
same,Group mean weight,[2]; [17],16.6 g
same,Weight (% change),[2]; [17],7.1%
same,Group mean weight,[2]; [18],16.4 g
same,Weight (% change),[2]; [18],5.8%
same,Group mean weight,[2]; [19],16.8 g
same,Weight (% change),[2]; [19],8.4%
same,Group mean weight,[2]; [20],17 g
same,Weight (% change),[2]; [20],9.7%
same,Group mean weight,[2]; [21],16.7 g
same,Weight (% change),[2]; [21],7.7%
same,Group mean weight,[2]; [22],16.8 g
same,Weight (% change),[2]; [22],8.4%
same,Group mean weight,[2]; [23],15.5 g
same,Weight (% change),[2]; [23],0%
same,ear thickness response,[2]; versus infected untreated group,produced a reduction in ear thickness
same,inhibition at 1000 µg/mL,[3],-1%
